The values below come from US7008636B2, “2,3,5-substituted biphenyls useful in the treatment of insulin resistance and hyperglycemia” (Wyeth, priority 1998, dated 2006).

pIC50: −log10 of the molar value.

The test concerns the target T1, recombinant, human protein tyrosine phosphatase (PTP) 1B (hPTP1B) (Homo sapiens, UniProt P18031).
T1 construct: made in house
T1 sequence (P18031 1-435): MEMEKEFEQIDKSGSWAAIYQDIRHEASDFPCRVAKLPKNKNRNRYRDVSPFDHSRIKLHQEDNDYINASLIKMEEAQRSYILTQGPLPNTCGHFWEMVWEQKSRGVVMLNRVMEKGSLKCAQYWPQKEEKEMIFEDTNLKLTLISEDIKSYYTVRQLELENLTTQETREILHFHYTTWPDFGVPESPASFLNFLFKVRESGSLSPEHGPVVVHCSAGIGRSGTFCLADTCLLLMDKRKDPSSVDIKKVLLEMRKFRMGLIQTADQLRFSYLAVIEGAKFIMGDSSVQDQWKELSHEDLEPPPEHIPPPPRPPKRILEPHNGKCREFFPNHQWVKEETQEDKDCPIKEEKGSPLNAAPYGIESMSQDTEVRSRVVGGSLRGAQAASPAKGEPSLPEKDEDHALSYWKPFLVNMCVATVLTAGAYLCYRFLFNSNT
The test is described as follows: Inhibition of tri-phosphorylated insulin receptor dodecaphosphopeptide dephosphorylation by hPTP1B. The class given is biochemical. The following applies: 50 μM IR triphosphopeptide substrate, 5 min preincubation and 5 min reaction at 37° C., malachite green-ammonium molybdate phosphate detection.
Consider `O=C(O)COc1ccc(C(=O)NCCCCCCCCc2ccccc2)cc1-c1ccc(F)c(Cl)c1` [Example 136, [3′-Chloro-4′-fluoro-5-(8-phenyl-octylcarbamoyl)-biphenyl-2-yloxy]acetic acid], for which the pIC50 was 6.34.
As for `Cc1cc(C)cc(-c2cc(C(=O)NCCCCCCCCc3ccccc3)cc(-c3cc(C)cc(C)c3)c2OCC(=O)O)c1` [Example 141, [3,5,3″,5″-Tetramethyl-5′-(8-phenyl-octylcarbamoyl)-[1,1′:3′,1″]terphenyl-2′-yloxy]acetic acid], the pIC50 was 7.15.
Consider `Cc1cccc(-c2cc(C(=O)NCCCCCCCc3ccccc3)cc(-c3cccc(C)c3)c2OCCCC(=O)O)c1` [Example 146, 4-[3,3″-Dimethyl-5′-(7-phenyl-heptylcarbamoyl)-[1,1′:3′,1″]terphenyl-2′-yloxy]-butyric acid], for which the pIC50 is 6.59.
The value for `COCOc1c(-c2cccc(C=O)c2)cc(C(=O)NCCCCCCCc2ccccc2)cc1-c1cccc(C=O)c1` [Example 149, 3,3″-Diformyl-2′-methoxymethoxy-[1,1′:3′,1″]terphenyl-5′-carboxylic acid (7-phenyl-heptyl)-amide] was 6.39.
The value for `O=C(NCCCCCCCCc1ccccc1)c1cc(Br)c(O)c(-c2cccc(C(=O)OCCCCCl)c2)c1` [Example 152, 3′-Bromo-2′-hydroxy-5′-(8-phenyl-octylcarbamoyl)-biphenyl-3-carboxylic acid 4-chloro-butyl ester] was 6.40.
The value for `CCCCCCCCCCCCNC(=O)c1cc(-c2cccc(Cl)c2)c(OCC(=O)O)c(-c2cccc(C(F)(F)F)c2)c1` [Example 153, (3″-Chloro-5′-dodecylcarbamoyl-3-trifluoromethyl-[1,1′;3′,1″]terphenyl-2′-yloxy)acetic acid] was 7.01; that for `CCCCCCCCCCCCNC(=O)c1cc(-c2ccc(OC)cc2)c(OCC(=O)O)c(-c2cccc(C(F)(F)F)c2)c1` [Example 154, (5′-Dodecylcarbamoyl-4″-methoxy-3-trifluoromethyl-[1,1′;3′1″]terphenyl-2′-yloxy)acetic acid] was 6.89.
`CCCCCCCCCCCCNC(=O)c1cc(-c2ccc(OC)cc2)c(OCC(=O)O)c(-c2ccccc2F)c1` [Example 155, (5′-Dodecylcarbamoyl-2″-fluoro-4-methoxy-[1,1′;3′,1″]terphenyl-2′-′yloxy)acetic acid]: the negative logarithm of the IC50 (pIC50) is 6.86.
Take `CCCCCCCOc1ccc(CNC(=O)c2cc(-c3cccc(Cl)c3)c(OCC(=O)O)c(-c3cccc(Cl)c3)c2)cc1` [Example 162, [3,3″-Dichloro-5′-(4-heptyloxy-benzylcarbamoyl)-[1,1′;3′,1″]terphenyl-2′-yloxy]acetic acid]: the pIC50 is 6.87.
Consider `O=C(O)CCCCOc1c(-c2cccc(Cl)c2)cc(C(=O)NCCCCCCCCn2ccc3ccccc32)cc1-c1cccc(Cl)c1` [Example 164, 5-[3,3″-Dichloro-5′-(8-indol-1-yl-octylcarbamoyl)-[1,1′;3′,1″]terphenyl-2′-yloxy]-pentanoic acid], for which the pIC50 was 6.72.
The value for `O=C(O)c1ccc(OCCOc2c(-c3cccc(Cl)c3)cc(C(=O)NCCCCCCCCn3ccc4ccccc43)cc2-c2cccc(Cl)c2)cc1` [Example 165, 4-{2-[3,3″-Dichloro-5′-(8-indol-1-yl-octylcarbamoyl)-[1,1′:3′,1″]terphenyl-2′-yloxy]-ethoxy}benzoic acid] was 7.11; that for `O=C(O)COc1c(-c2cccc(Cl)c2)cc(C(=O)NCCCCCCO)cc1-c1cccc(Cl)c1` [Example 167, [3,3″-Dichloro-5′-(6-hydroxy-hexylcarbamoyl)-[1,1′:3′,1″]terphenyl-2′-yloxy]acetic acid] was 6.64; that for `O=C(O)COCCOc1c(-c2cccc(Cl)c2)cc(C(=O)NCCCCCCCCn2ccc3ccccc32)cc1-c1cccc(Cl)c1` [Example 168, {2-[3,3″-Dichloro-5′-(8-indol-1-yl-octylcarbamoyl)-[1,1′:3′,1″]terphenyl-2′-yloxy]-ethoxy}acetic acid] was 7.11.
The value for `CCCCCCCCCCCCCc1cc(-c2ccccc2)c(OCC(=O)O)c(-c2ccccc2)c1` [Example 171, (5′-Tridecyl-[1,1′;3′,1″]terphenyl-2′-yloxy)acetic acid] was 7.74; that for `CCCCCCCCCCOc1cc(-c2ccccc2)c(OCC(=O)O)c(-c2ccccc2)c1` [Example 172, (5′-Decyloxy-[1,1′;3′,1″]terphenyl-2′-yloxy)acetic acid] was 6.81.
The value for `CCCCCCCCCCCCNC(=O)c1cc(Br)c(OCC(=O)O)c(-c2cccc(C(F)(F)F)c2)c1` [Example 176, (3-Bromo-5-dodecylcarbamoyl-3′-trifluoromethyl-biphenyl-2-yloxy)-acetic acid] was 6.92; that for `O=C(O)COc1c(-c2cccc(C(F)(F)F)c2)cc(C(=O)NCCCCCCCCc2ccccc2)cc1-c1cccc(C(F)(F)F)c1` [Example 177] was 6.98; that for `CCCCCCCCCCCCNC(=O)c1cc(Br)c(OS(=O)(=O)c2ccc(C(=O)O)c(O)c2)c(-c2cccc(C(F)(F)F)c2)c1` [Example 179, 4-(3-Bromo-5-dodecylcarbamoyl-3′-trifluoromethyl-biphenyl-2-yloxysulfonyl)-2-hydroxy-benzoic acid] was 7.60.
Turning to `O=C(O)CCCCOc1c(-c2cccc(C(F)(F)F)c2)cc(C(=O)NCCCCCCCCc2ccccc2)cc1-c1cccc(C(F)(F)F)c1` [Example 192], the pIC50 is 6.97.
Then `O=C(NCCCCCCCCc1ccccc1)c1cc(Br)c(O)c(-c2cccc(C(F)(F)F)c2)c1` [Example 194, 5-Bromo-6-hydroxy-3′-trifluoromethyl-biphenyl-3-carboxylic acid (8-phenyl-octyl)-amide], with 6.19; and `O=C(NCCCCCCCCc1ccccc1)c1cc(Br)c(OS(=O)(=O)c2ccc(C(=O)O)c(O)c2)c(-c2cccc(C(F)(F)F)c2)c1` [Example 195, 4-[3-Bromo-5-(8-phenyl-octylcarbamoyl)-3′-trifluoromethyl-biphenyl-2-yloxysulfonyl]-2-hydroxy-benzoic acid], with 7.14.
In the case of `O=C(O)CCCCCCOc1c(-c2cccc(C(F)(F)F)c2)cc(C(=O)NCCCCCCCCc2ccccc2)cc1-c1cccc(C(F)(F)F)c1` [Example 196, 7-[5′-(8-Phenyl-octylcarbamoyl)-3,3″-bistrifluoromethyl-[1,1′;3′,1″]terphenyl-2′-yloxy]-heptanoic acid], the pIC50 is 6.82.
The value for `O=C(NCCCCCCCCc1ccccc1)c1cc(-c2cccc(C(F)(F)F)c2)c(OCCNc2c(O)c(=O)c2=O)c(-c2cccc(C(F)(F)F)c2)c1` [Example 197] was 7.00; that for `COc1cc(COc2c(-c3cccc(C(F)(F)F)c3)cc(C(=O)NCCCCCCCCc3ccccc3)cc2-c2cccc(C(F)(F)F)c2)ccc1C(=O)O` [Example 199, 2-Methoxy-4-[5′-(8-phenyl-octylcarbamoyl)-3,3″-bis-trifluoromethyl-[1,1′:3′1″]terphenyl-2′yloxymethyl]-benzoic acid] was 6.99; that for `O=C(NCCCCCCCCc1ccccc1)c1cc(-c2cccc(C(F)(F)F)c2)c(OS(=O)(=O)c2ccc(C(=O)O)c(O)c2)c(-c2cccc(C(F)(F)F)c2)c1` [Example 203, 2-Hydroxy-4-[5′-(8-phenyl-octylcarbamoyl)-3,3″-bis-trifluoromethyl-[1,1′:3′1″]terphenyl-2′-yloxysulfonyl]-benzoic acid] was 7.30.

As usually defined, the pIC50 is the negative decadic logarithm of the IC50, by convention in mol/L.
